Source: patent US11452758B2, “Antimicrobial peptide derived from LL37 peptide and uses thereof” (INDUSTRY-ACADEMIC COOPERATION FOUNDATION, CHOSUN UNIVERSITY, priority 2018, dated 2022)
In brackets after ≈: the same amount, converted by molar mass. Where a SMILES comes first, the peptide text is derived from it.

Key:
E. coli ATCC 25922 = format: cell-based, Escherichia coli; conditions: ATCC 25922, 18 h
Excerpt: (§1) To compare the antimicrobial activity among the peptides produced by the method of Example 1, the inventors of the present invention measured the minimal growth inhibitory concentration (MIC), which is minimum concentration of the peptide not allowing any […] of bacterial cells.
(§2) Specifically, the bacterial strains described in the following Table 2 were purchased and cultured to a mid-log phase in MHB (Mueller Hinton Broth) medium. Then, after dilution to bacterial cell concentration of 2×10^5 cells/50 μl, the cells were inoculated to a microtiter plate (NUNC, USA). Thereafter, LL37-1, LL37-2, LL37-3 or LL37-4 peptide which has been synthesized in Example 1 above was subjected to serial dilution, ½ times for each, in a 96-well plate. After adding the peptides in an amount of 50 μl to the cell plate, the cells were cultured for 18 hours at 37° C. By using a microtiter plate reader (Merck Elisa reader, Germany), the absorbance was measured at a wavelength of 600 nm to determine the MIC value of each bacterial strain. As a control group, LL37 as a mother peptide was used and subjected to the same process as above to determine the MIC value of each strain.

P. aeruginosa ATCC 27853 = format: cell-based, Pseudomonas aeruginosa; conditions: ATCC 27853, 18 h
Excerpt: as §1, §2

[1] = Cytotoxicity in normal cell line (MTT); format: cell-based, human; conditions: human
Experimental: To determine the cytotoxicity of the peptides produced by the method of Example 1 in normal cell line, cytotoxicity was measured by using normal human keratinocyte cell line (HaCaT) and normal human fibroblast cell line (Hs27).
Specifically, normal human keratinocyte (HaCaT) cells and normal human fibroblast (Hs27) cells, which have been cultured in DMEM medium containing 10% FBS (fetal bovine serum), were aliquoted in a microtiter plate to have 1×10^4 cells per well. After culturing them for 24 hours, the cells were subjected to a treatment with LL37, LL37-1, LL37-2, LL37-3 or LL37-4 peptide, each at concentration of 0.5, 1, 2, 4, 8, 16 or 32 μM/well, followed by reaction for 24 hours in a 5% CO2 incubator. After culture, a reaction solution containing 5 mg/ml MTT (Thiazolyl Blue Tetrazolium Bromide) dissolved in phosphate buffered saline (PBS) was added in an amount of 10 μl to each well and the reaction was allowed to occur for 1 hour. After that, the supernatant was discarded, and, by dissolving MTT crystals that are formed by adding 200 μl DMSO (dimethyl sulfoxide), the absorbance at 570 nm was measured to determine the cell survival ability.

[2] = test system: L. monocytogenes KCTC 3710; format: cell-based, Listeria monocytogenes; conditions: KCTC 3710, 18 h
Excerpt: as §1, §2

A. baumannii #3 = format: cell-based, Acinetobacter baumannii; conditions: #3
Excerpt: as §1, §2

A. baumannii #11 = format: cell-based, Acinetobacter baumannii; conditions: #11
Excerpt: as §1, §2

A. baumannii #2 = format: cell-based, Acinetobacter baumannii; conditions: #2
Excerpt: as §1, §2

A. baumannii #9 = format: cell-based, Acinetobacter baumannii; conditions: #9
Excerpt: as §1, §2

A. baumannii #19 = format: cell-based, Acinetobacter baumannii; conditions: #19
Excerpt: as §1, §2

A. baumannii #5 = format: cell-based, Acinetobacter baumannii; conditions: #5
Excerpt: as §1, §2

A. baumannii #10 = format: cell-based, Acinetobacter baumannii; conditions: #10
Excerpt: as §1, §2

A. baumannii KCTC 2508 = format: cell-based, Acinetobacter baumannii; conditions: KCTC 2508, 18 h
Excerpt: as §1, §2

A. baumannii #4 = format: cell-based, Acinetobacter baumannii; conditions: #4
Excerpt: as §1, §2

A. baumannii #8 = format: cell-based, Acinetobacter baumannii; conditions: #8
Excerpt: as §1, §2

A. baumannii #13 = format: cell-based, Acinetobacter baumannii; conditions: #13
Excerpt: as §1, §2

A. baumannii #12 = format: cell-based, Acinetobacter baumannii; conditions: #12
Excerpt: as §1, §2

S. aureus ATCC 25923 = format: cell-based, Staphylococcus aureus; conditions: ATCC 25923, 18 h
Excerpt: as §1, §2

S. typhimurium KCTC 1925 = format: cell-based, Salmonella typhimurium; conditions: KCTC 1925, 18 h
Excerpt: as §1, §2

CC[C@H](C)[C@H](NC(=O)[C@H](CCCNC(=N)N)NC(=O)[C@H](CCC(N)=O)NC(=O)[C@@H](NC(=O)[C@@H](NC(=O)[C@H](CCCNC(=N)N)NC(=O)[C@H](CCCCN)NC(=O)[C@H](Cc1ccccc1)NC(=O)[C@H](CCC(=O)O)NC(=O)[C@@H](N)CCCCN)[C@@H](C)CC)C(C)C)C(=O)N[C@@H](CCCCN)C(=O)N[C@@H](CC(=O)O)C(=O)N[C@@H](Cc1ccccc1)C(=O)N[C@@H](CC(C)C)C(=O)N[C@@H](CCCNC(=N)N)C(=O)N[C@@H](CC(N)=O)C(N)=O [LL37-1, KEFKRIVQRIKDFLRN-NH2] (H-KEFKRIVQRIKDFLRN-NH2)
Minimal inhibitory concentration (E. coli ATCC 25922): 128 µM (≈ 267 µg/mL) | Minimal inhibitory concentration (P. aeruginosa ATCC 27853): 16 µM (≈ 33.4 µg/mL) | viability at 24 h, 0.5 µM ([1]; HaCaT keratinocyte cells): 97% | viability at 24 h, 1 µM ([1]; HaCaT keratinocyte cells): 103% | viability at 24 h, 2 µM ([1]; HaCaT keratinocyte cells): 98% | viability at 24 h, 4 µM ([1]; HaCaT keratinocyte cells): 99% | viability at 24 h, 8 µM ([1]; HaCaT keratinocyte cells): 103% | viability at 24 h, 16 µM ([1]; HaCaT keratinocyte cells): 101% | viability at 24 h, 32 µM ([1]; HaCaT keratinocyte cells): 104% | viability at 24 h, 0.5 µM ([1]; Hs27 fibroblast cells): 100% | viability at 24 h, 1 µM ([1]; Hs27 fibroblast cells): 100% | viability at 24 h, 2 µM ([1]; Hs27 fibroblast cells): 103% | viability at 24 h, 4 µM ([1]; Hs27 fibroblast cells): 95% | viability at 24 h, 8 µM ([1]; Hs27 fibroblast cells): 96% | viability at 24 h, 16 µM ([1]; Hs27 fibroblast cells): 92% | viability at 24 h, 32 µM ([1]; Hs27 fibroblast cells): 95% | Minimal inhibitory concentration [2]: 128 µM (≈ 267 µg/mL) | Minimal inhibitory concentration (A. baumannii #3): 8 µM (≈ 16.7 µg/mL) | Minimal inhibitory concentration (A. baumannii #11): 4 µM (≈ 8.36 µg/mL) | Minimal inhibitory concentration (A. baumannii #2): 4 µM (≈ 8.36 µg/mL) | Minimal inhibitory concentration (A. baumannii #9): 4 µM (≈ 8.36 µg/mL) | Minimal inhibitory concentration (A. baumannii #19): 8 µM (≈ 16.7 µg/mL) | Minimal inhibitory concentration (A. baumannii #5): 4 µM (≈ 8.36 µg/mL) | Minimal inhibitory concentration (A. baumannii #10): 4 µM (≈ 8.36 µg/mL) | Minimal inhibitory concentration (A. baumannii KCTC 2508): 16 µM (≈ 33.4 µg/mL) | Minimal inhibitory concentration (A. baumannii #4): 8 µM (≈ 16.7 µg/mL) | Minimal inhibitory concentration (A. baumannii #8): 4 µM (≈ 8.36 µg/mL) | Minimal inhibitory concentration (A. baumannii #13): 4 µM (≈ 8.36 µg/mL) | Minimal inhibitory concentration (A. baumannii #12): 8 µM (≈ 16.7 µg/mL) | Minimal inhibitory concentration (S. aureus ATCC 25923): 32 µM (≈ 66.9 µg/mL) | Minimal inhibitory concentration (S. typhimurium KCTC 1925): 32 µM (≈ 66.9 µg/mL)
